Source: US8124770B2, “Fluorescent cellular markers” (priority 2009, dated 2012)
Where two headings read alike, the source gives them in different places.

Columns and labels:
Assay type in all cases: cell-based, human
[1] = test system: Epidermoid carcinoma A431 cells; assay: Cell cytotoxicity (growth inhibition) of BQS on A431 cells, Trypan Blue Exclusion; conditions: 5 to 100 uM, read-out: IC50 (inhibition of 50% of the cell population)
Protocol: Regarding the cytotoxicity, in order to determine the cell cytotoxicity of the BQS, duplicates cultures of 5×10^6 cells were seeded in 25 cm^2 flasks. The final volume on each plate was 9 ml of modified RPMI 1640 that contained the cell aliquot, media and BQS of present invention. Cells were then incubated for 4 hours to allow cells to adhere to the flask. Cells were cultured for 48 hours with BQS at concentration ranging from 5 to 100 uM. A negative control treated with ultra pure water (vehicle) was included in each experiment. […] At the end of the exposure period, media was removed and cultures rinsed twice with phosphate buffered saline (PBS) for removal of the compounds in solution. Cells detached with 5% trypsin enzyme, centrifuged, resuspended in fresh media and counted through a cell viability protocol, such as the Trypan Blue Exclusion analysis. Cell survival was calculated and plotted against time with the Microsoft Excel® software.

[2] = test system: caspases 3 and 7 in A431 cells; assay: Caspases 3 and 7 activation, Magic Red assay, on A431 cells; conditions: 48 hours of exposure, Cisplatin 3 uM positive control
Protocol: D. et al 2004; Blanc, C. et al 2000) making Cisplatin and Staurosporine appropriate positive controls for this assay. Cell culture media, such as RPMI 1640, modified with additional nutrients and additives such as Fetal Bovine serum and antibiotic has been added to improve the cell replication and prevent bacterial contamination was employed. […] The final volume on each plate was 9 ml of modified RPMI 1640 that contained the cell aliquot, media and drug. […] At the end of the treatment time cells were washed with PBS, detached with 5% trypsin enzyme and centrifuged. Cells were counted and aliquots were stained for an hour with cresyl violet (fluorochrome). […] Apoptotic cells (red) were distinguished from non apoptotic (non-fluorescent) using the negative and positive controls as reference.

A431 tumor cells = assay: Auto-fluorescence on A431 tumor cells, inverted fluorescence microscopy; conditions: at IC50 concentration, monitored through 72 hour period, Olympus CKX41
Protocol: Regarding the autofluorencense, Ellipticine was selected as a fluorescent positive control since it is a structural analog of ABQS's. The elipticine's IC50 dose in A431 was determine by treating A431 cell cultures (in duplicates) at concentrations ranging from 0 to 50 μM. The final volume on each plate was 9 mL of modified RPMI 1640 that contained the cell aliquot, media and drug. Cells were exposed to ABQS's and Ellipticine at their IC50 concentrations, incubated and monitored through a 72 hour period by inverted microscopy. An Olympus CKX41 inverted fluorescent microscope (50 w Hg lamp), with U filter; 40× objective. Photographs were obtained at 13-17 seconds of exposure using the Q Capture Software. Auto-fluorescent cells were distinguished from non-auto-fluorescent ones using the negative and positive controls as reference.

[3] = test system: DNA and mitochondria of A431 tumor cells; assay: Intra cellular binding to organelles, wide-field fluorescence microscopy of A431 tumor cells; conditions: fluorescence microscope (FIG. 11)
[4] = Homo sapiens, A-431, 48 hours exposure

Compound	IC50 ([1]; 48 hours exposure) [µM]	Caspases 3 and 7 activation [2] [%]	auto fluorescence in cells (A431 tumor cells)	capacity to bind to cellular organelles [3]	IC50 [1, 4] [µM]
7-Ethyl-3-nitrobenzimidazolo[3,2-a]quinolinium Chloride [NBQ38]	36	22±7	–	–	–
N.N.[Cl][Pt][Cl] [Cisplatin, reference compound]	–	51±13	–	–	–
CC[n+]1c2ccccc2n2c3ccc(N)cc3ccc21.[Cl-] [ABQ38, 3-amino-7-ethylbenzimidazo[3,2-a]quinolinium chloride]	32	51±1	auto fluorescence	bind to DNA and mitochondria	–
Cc1ccc2sc3ccc4cc(N)c(Cl)cc4[n+]3c2c1.[Cl-] [ABQ95, 3-amino-2-chloro-10-methylbenzothiazolo[3,2-a]quinolinium chloride]	–	46±6	–	bind to DNA and mitochondria	36
Cc1ccc2sc3ccc4cc([N+](=O)[O-])c(Cl)cc4[n+]3c2c1 [NBQ95, 2-Chloro-10-methyl-3-nitrobenzothiazolo[3,2-a]quinolinium chloride]	–	–	–	–	28
